The structures appear in SMILES notation. Read-outs that look alike come from different tables or passages of the source.

Assay [1] deals with BCL-XL. Briefly: Immunoblot of BCL-2 family proteins in Loucy cells. In kind it is cell-based. The settings on record: 12 to 48 hours. Here is the method:
(§1) At indicated time points, cellular lysates were harvested at the indicated times points and immunoblotted for the indicated proteins. […] Anti-proliferative effects were determined using cell titer glo analysis. […] Anti-proliferative effects were determined using alamarBlue® analysis. […] Anti-proliferative effects were determined using cell titer glo analysis. […] Dose: i.v. 1 mg/kg and p.o. 10 mg/kg.
(§2) Consistent with its covalent inhibitory mechanism, similar results were seen over the same time span following washout (FIGS. 6A to 6B).

Assay [2] deals with MCL-1 protein. Briefly: Immunoblot of BCL-2 family proteins in Loucy cells. Type of assay: cell-based. The settings on record: after 12 hours. Here is the method:
as §1, §2

The test system of assay [3] is panel of >300 diverse cancer cell lines. The experiment in a line: Cancer cell line panel profiling, alamarBlue, 72 hours. In kind it is cell-based, human. The protocol:
as §1
Proliferation assays were conducted over a 48-72 hour time period (as noted). […] Cancer cell line profiling was performed over a 72 time period using Alamar Blue reagent.
CDK7 inhibitors display strong antiproflierative effects in leukemia and lymphoma cancer cells. However, a better definition of the breadth of their therapeutic potential in other cell types has not been reported. […] The rationale for examining such a large panel of human cancer cell lines is based on the fact that there is substantial genetic heterogeneity among human tumor cells, even with the same histological origins. In general, the data reveal a bimodal distribution with cell lines displaying exquisite sensitivity or apparent complete insensitivity to the compound.

For assay [4], the system named is patient-derived chronic lymphocytic leukemia (CLL) isolates. Briefly: Cell death of patient-derived CLL isolates, Annexin V staining, 24 hour. In kind it is cell-based, human. As to conditions: read-out: Pro-death signaling, average EC50 values. The protocol:
Clinical isolates of CLL were cultured with compounds of Formula (I) or flavopiridol and assessed for cell death after a 24 hour time course by Annexin V staining. […] Anti-proliferative effect was measured using cell titer glo analysis.
PBMCs freshly isolated from peripheral blood are seeded in 24 well plates at a volume of 0.5 ml and a concentration of 2×10^6 cells/ml. Compounds and controls are added to respective wells in a total volume of 2.5 μl. Plates are mixed gently and incubated approximately 24 hours at 37° C., 5% CO2. Apoptosis was measured in all cells from each well using the Annexin V: FITC Apoptosis Detection Kit I (BD Biosciences). Normalized % death was calculated as follows: [(% Dead Drug−% Dead DMSO)/(100%−% Dead DMSO)]×100

The subject of assay [5] is CDK7 occupancy. The experiment in a line: CDK7 ChIP-seq in Jurkat cells. Type of assay: cell-based, human. The protocol: (§3) After the indicated treatment time, cells were crosslinked for 10 minutes at room temperature by the addition of one-tenth of the volume of 11% formaldehyde solution (11% formaldehyde, 50 mM Hepes (pH 7.3), 100 mM NaCl, 1 mM EDTA (pH 8.0), 0.5 mM EGTA (pH 8.0)) to the growth media followed by two washes with PBS. Following the final PBS wash, supernatant was aspirated, and the cell pellet was flash frozen in liquid nitrogen. Frozen crosslinked cells were stored at −80° C.
(§4) 50 μl of Dynal magnetic beads (Sigma) were blocked with 0.5% BSA (w/v) in PBS. Magnetic beads were bound with 5 μg of the indicated antibody. Antibodies used are as follows: Total RNAP II (Rpb1 N-terminus): Santa Cruz sc-899; CDK7: Bethyl A300-405A. Crosslinked cells were lysed with lysis buffer 1 (50 mM Hepes (pH 7.3), 140 mM NaCl, 1 mM EDTA, 10% glycerol, 0.5% NP-40, and 0.25% Triton X-100) and washed with lysis buffer 2 (10 mM Tris-HCl (pH 8.0), 200 mM NaCl, 1 mM EDTA (pH 8.0) and 0.5 mM EGTA (pH 8.0)). […]
(§5) Illumina sequencing libraries were generated, and data were processed according to Lin et al., Cell (2012) 151:56-67. […] These criteria preserved only reads that mapped uniquely to the genome with 1 or fewer mismatches. […]

Assay [6] concerns RNAP II occupancy. The experiment in a line: RNAP II ChIP-seq in Jurkat cells. Type of assay: cell-based, human. The settings on record: 250 nM for 6 hours. The protocol:
as §3, §4, §5

Assay [7] addresses MLK3 (Homo sapiens (Human), UniProt Q16584). The experiment in a line: Life Technologies LanthaScreen Eu kinase assay, MLK3. The settings on record: read-out: Calculated IC50, MLK3. Type of assay: binding.
For assay [8], the system named is RNAP II CTD phosphorylation. The experiment in a line: RNAP II CTD phosphorylation immunoblot in Loucy cells (dose response, time course, washout). The settings on record: for IC50: 4 hours. In kind it is cell-based. The protocol: Following the treatment, the cells were washed 2-fold with PBS. Fresh medium containing no inhibitors were added back to the cells. The cells were lysed at indicated time points, and the lysates were probed for RNAP II CTD phosphorylation.
CDK7 exerts its regulatory control of transcription largely by phosphorylating RNAP II CTD, which promotes active transcription. […] Reduction of Ser-5 phosphorylation was seen only at higher concentrations.
Covalent kinase inhibitors have several characteristics that functionally differentiate themselves from their reversible counterparts. […] Washout of compound I-23R, following a 4-hour administration led to the recovery of RNAP II CTD phosphorylation within 1 hour (FIG. 2C). […] This phenomenon was also visible using in vitro kinase reactions comparing pre-incubation of compound I-23 with compound I-23 introduced concurrently with ATP.

Sequence of MLK3 (Q16584 whole entry): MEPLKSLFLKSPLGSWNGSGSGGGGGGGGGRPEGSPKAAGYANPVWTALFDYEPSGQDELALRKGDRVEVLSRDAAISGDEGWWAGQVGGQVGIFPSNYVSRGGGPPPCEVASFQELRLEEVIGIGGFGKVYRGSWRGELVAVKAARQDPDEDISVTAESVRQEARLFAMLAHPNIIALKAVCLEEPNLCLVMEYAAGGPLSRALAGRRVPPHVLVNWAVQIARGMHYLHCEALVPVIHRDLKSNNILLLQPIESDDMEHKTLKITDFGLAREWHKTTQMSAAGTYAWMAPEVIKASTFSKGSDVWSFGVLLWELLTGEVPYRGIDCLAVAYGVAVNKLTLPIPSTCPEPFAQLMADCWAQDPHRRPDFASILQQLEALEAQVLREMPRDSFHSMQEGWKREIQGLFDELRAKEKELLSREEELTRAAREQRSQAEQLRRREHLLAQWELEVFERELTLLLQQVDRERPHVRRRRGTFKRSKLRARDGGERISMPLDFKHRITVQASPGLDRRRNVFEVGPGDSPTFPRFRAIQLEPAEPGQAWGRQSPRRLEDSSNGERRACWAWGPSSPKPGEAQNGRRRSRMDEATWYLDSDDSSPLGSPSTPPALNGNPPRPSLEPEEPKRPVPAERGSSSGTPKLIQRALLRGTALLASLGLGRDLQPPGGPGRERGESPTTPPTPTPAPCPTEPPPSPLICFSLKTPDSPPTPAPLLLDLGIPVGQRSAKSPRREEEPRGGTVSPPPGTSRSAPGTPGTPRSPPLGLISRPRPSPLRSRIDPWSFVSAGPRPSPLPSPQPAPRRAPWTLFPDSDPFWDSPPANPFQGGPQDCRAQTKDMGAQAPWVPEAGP

With `CN(C)C/C=C/C(=O)Nc1ccc(C(=O)Nc2cccc(Nc3ncc(Cl)c(-c4c[nH]c5ccccc45)n3)c2)cc1` [Formula I-23], the “Reduction of BCL-XL protein levels” value in assay [1] is recorded as “not reduced even at higher concentrations”. Besides, the “Concentration sufficient to elicit a reduction in MCL-1 protein levels” value in assay [2] is recorded as not above 100 nM. The IC50 in assay [3] (panel of >300 cancer cell lines, read-out: IC50 values in 24% of cell lines) was more than 2500 nM; in assay [3] (read-out: IC50s in 94% (132/140) of leukemia cell lines) it was less than 200 nM; in assay [3] (read-out: IC50s in all (48/48) lymphoma cell lines), less than 150 nM; in assay [3] (read-out: IC50 values in 70% of cell lines, panel of >300 cancer cell lines), less than 200 nM; in assay [7], less than 100 nM; in assay [8] (read-out: Cellular IC50 for RNAP II CTD Ser-2 phosphorylation), approximately 20 nM. Moreover, in assay [8] (read-out: Cellular IC50 for RNAP II CTD Ser-7 phosphorylation), the IC50 is approximately 4 nM. Besides, the EC50 in assay [4] is less than 200 nM. In assay [5], the “CDK7 occupancy (association with chromatin)” value is “did not disrupt CDK7 occupancy”. For the same compound, the “RNAP II occupancy at the promoter proximal pause site” value in assay [6] was “drastically diminished”. Moreover, in assay [8] (treated 0 to 4 hours), the “Time to complete inhibition of target (inactivation of CDK7, RNAP II CTD phosphorylation)” value was 3 to 4 h. The “Recovery of RNAP II CTD phosphorylation after inhibitor washout” value in assay [8] (washout following a 4-hour administration) is “did not restore normal CTD phosphorylation levels”.

(Values after patent US10787436B2, “Inhibitors of cyclin-dependent kinase 7 (CDK7)” (Dana-Farber Cancer Institute, Inc., priority 2012, dated 2020).)
